# Like-named read-outs stand apart in the source and are kept apart here.
# How the values were obtained:
# [1] = nonclinical studies, oral solution; no reference given; cited from earlier work
# [2] = tested on: FcεRI‐mediated activation of basophils; assay: Basophil activation test; assay type: in vivo, human
# [3] = dogs, nonclinical, no reference given, cited from earlier work
# [4] = tested on: rat collagen‐induced arthritis model; conditions: nonclinical, no reference given; cited from earlier work
# [5] = rats, nonclinical, no reference given, cited from earlier work
compound,measurement,setting,value
C=CC(=O)N1CC[C@H](Oc2nc(-c3n[nH]c(=O)[nH]3)cc3ccccc23)C1 [TAK‐020],time of peak plasma concentrations postdose,[1],≤ 2 h
same,reduction from baseline in the %CD63‐positive basophils,"[2]; MRD, day 9 after q.d. administration, doses ≥3.75 mg (3.75 to 60 mg)",> 80%
same,reduction in the %CD63‐positive basophils sustained throughout the entire dosing interval (predose to 24 hours postdose),"[2]; MRD, ≥ 45‐mg doses, after multiple dosing for 9 days",≥ 80%
same,reduction in the %CD63‐positive basophils,"[2]; SRD, 0.1‐mg and 0.5‐mg dose groups",essentially no reduction
same,time to return to baseline basophil activity postdose,"[2]; SRD, single doses ≥ 4.4 mg",36 to 72 h
same,reduction from baseline of FcεRI‐mediated activation of basophils (%CD63‐positive basophils),"[2]; SRD, single doses ≥ 4.4 mg (4.4–105 mg)",> 80%
same,terminal disposition phase elimination half‐life (t1/2z),[3]; after oral administration,3.8 to 6.7 h
same,oral bioavailability,[3],8.17%
same,median effective dose,[4],0.31 mg/kg per day
same,terminal disposition phase elimination half‐life (t1/2z),[5]; after oral administration,4.4 to 7.3 h
same,oral bioavailability,[5],13.2%

# Source: publication PMC8212709 (Clinical and Translational Science, 2021)
